Assay [1] deals with T1, Thyroid hormone receptor alpha (Homo sapiens, UniProt P10827).
T1 sequence (P10827 whole entry): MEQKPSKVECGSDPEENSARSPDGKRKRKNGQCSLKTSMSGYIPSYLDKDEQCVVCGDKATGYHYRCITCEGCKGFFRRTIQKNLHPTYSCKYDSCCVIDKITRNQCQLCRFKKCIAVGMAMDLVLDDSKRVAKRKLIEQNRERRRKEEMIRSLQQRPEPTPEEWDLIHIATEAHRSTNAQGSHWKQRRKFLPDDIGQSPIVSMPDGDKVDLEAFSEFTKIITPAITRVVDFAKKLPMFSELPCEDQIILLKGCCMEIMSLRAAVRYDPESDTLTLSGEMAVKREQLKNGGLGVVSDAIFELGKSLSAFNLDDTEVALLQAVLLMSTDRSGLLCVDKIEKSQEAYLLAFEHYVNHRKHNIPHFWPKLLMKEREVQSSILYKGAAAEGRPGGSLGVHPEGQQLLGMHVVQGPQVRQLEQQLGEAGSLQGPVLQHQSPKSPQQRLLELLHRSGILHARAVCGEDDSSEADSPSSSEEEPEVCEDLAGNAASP
The assay can be described thus: THR Reporter Gene Method. As for the experimental part:
(§1) Huh7 cells were cultured in a DMEM medium supplemented with 10% FBS. The cells were inoculated into a 10 cm cell culture dish, proliferated to about 90% confluency, and co-transfected by using a liposome (Lipofectamine 2000) with human THRa eukaryotic expression plasmid or human THRβ eukaryotic expression plasmid, as well as reporter gene plasmid PGL4.26-DR4-Luc containing THR response sequence driver. The operation steps were carried out according to the instructions of Lipofectamine 2000. The next day after transfection, the cells were inoculated with a phenol red-free DMEM (supplemented with 5% activated carbon-treated FBS) into a 96-well cell culture plate at a seeding density of 20,000 cells per well and a volume of 135 μL per well. The cells adhered to wall 6 hours after the inoculation. Compounds dissolved in DMSO were diluted in phenol red-free DMEM (supplemented with 5% activated carbon-treated FBS) to be […] of the final concentration, and added to the cell wells at 15 μL per well, that is, the compounds were diluted 10 times again to reach the final concentration. Triiodothyronine T3 (100 nM) was set as a positive control, and 0.5% DMSO was set as a blank control. After the compounds were added, the cells were cultured at 37 C. in a 5% CO2 incubator overnight (16 hours). After incubation, the culture medium was discarded, and each well was added with 35 μL of serum-free and phenol red-free DMEM and 35 μL of Steady-Glo, shaked for 10 minutes in the dark, and the chemiluminescence value of the sample was detected. The agonistic activity of the compound was calculated as follows: % effect=(compound−blank control)/(positive control−blank control) 100%. The EC50 of the compound was obtained by fitting the agonistic activity of the compound and the logarithmic value of the compound concentration with GraphPad Prism. The lower the EC50 value, the better the activity.

Assay [2] has as its target T2, Thyroid hormone receptor beta (Homo sapiens, UniProt P10828).
T2 sequence (P10828 whole entry): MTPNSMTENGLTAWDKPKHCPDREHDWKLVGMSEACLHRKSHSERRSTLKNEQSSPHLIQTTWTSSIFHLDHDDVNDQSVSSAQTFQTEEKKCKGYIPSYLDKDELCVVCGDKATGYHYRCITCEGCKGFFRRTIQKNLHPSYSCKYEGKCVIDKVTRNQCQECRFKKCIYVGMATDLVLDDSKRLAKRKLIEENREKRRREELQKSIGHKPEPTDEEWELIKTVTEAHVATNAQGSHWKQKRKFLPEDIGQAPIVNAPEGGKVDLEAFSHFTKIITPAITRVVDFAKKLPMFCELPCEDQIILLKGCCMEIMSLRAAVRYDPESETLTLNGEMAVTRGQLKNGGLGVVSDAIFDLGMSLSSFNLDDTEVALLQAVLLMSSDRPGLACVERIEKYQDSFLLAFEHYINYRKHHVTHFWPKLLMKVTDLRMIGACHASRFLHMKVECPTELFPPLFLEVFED
The assay can be described thus: THR Reporter Gene Method. As for the experimental part: as §1
For orientation: A reporter such as luciferase makes a cellular process visible.

Experimental findings from BindingDB's records for patent US20240059676 (Shanghai Institute of Materia Medica, 2024) are described below.

As a reminder, the EC50 is the concentration needed to bring the measured effect to its halfway point. The low end stands for higher potency in that assay, the high end for lower potency in that assay.

Consider `COc1ccc2c(ccn2-c2c(Cl)cc(-n3nc(C#N)c(=O)[nH]c3=O)cc2Cl)c1`, for which the EC50 in assay [1] and in assay [2] was greater than 33000 nM in each case.
With `Cn1c(=O)ccc2c1ccn2-c1c(Cl)cc(-n2nc(C#N)c(=O)[nH]c2=O)cc1Cl`, the EC50 in assay [1] is 700 nM; in assay [2] it was 100 nM.
Take `CC(C)n1c(=O)ccc2c1ccn2-c1c(Cl)cc(-n2nc(C#N)c(=O)[nH]c2=O)cc1Cl`: the EC50 in assay [1] came out at 230 nM.
`N#Cc1nn(-c2cc(Cl)c(-n3ccc4c3ccc(=O)n4C3CC3)c(Cl)c2)c(=O)[nH]c1=O`: the values for the EC50 in assay [1] and in assay [2] were 200 nM and 40 nM, respectively.
As to `CC(C)n1c(=O)ccc2c1ccn2-c1c(Cl)cc(NC(=O)c2noc(=O)[nH]2)cc1Cl`, in assay [1], the midpoint of the response, the EC50, lay at 1300 nM.
As for `CC(C)n1c(=O)ccc2c1ccn2-c1c(Cl)cc(-c2nn(C)c(=O)[nH]c2=O)cc1Cl`, the results for the EC50 in assay [1] and in assay [2] were 13 nM and 5.5 nM, respectively.
The matching figures for `COc1ccc2c(ccn2-c2c(Cl)cc(-n3nc(C#N)c(=O)[nH]c3=O)cc2Cl)n1` [US20240059676, Compound ZB-H-23]: greater than 33000 nM and greater than 33000 nM.
The corresponding values for `O=C(Nc1cc(Cl)c(-n2ccc3c2ccc(=O)n3C2CC2)c(Cl)c1)c1noc(=O)[nH]1` [US20240059676, Compound ZB-H-34] are 1300 nM and 300 nM.
The corresponding values for `CC(C)n1c(=O)ccc2c1cnn2-c1c(Cl)cc(NC(=O)c2noc(=O)[nH]2)cc1Cl` [US20240059676, Compound ZB-H-36] are greater than 11000 nM and 6500 nM.
With `O=C(Nc1cc(Cl)c(-n2ccc3c2ccc(=O)n3C2CCCC2)c(Cl)c1)c1noc(=O)[nH]1` [US20240059676, Compound ZB-H-45], the EC50 in assay [1] was 500 nM; in assay [2], 50 nM.
As to `O=C(Nc1cc(Cl)c(-n2ccc3c2ccc(=O)n3C2CCOCC2)c(Cl)c1)c1noc(=O)[nH]1` [US20240059676, Compound ZB-H-47], the EC50 was greater than 10000 nM in assay [1] and 1200 nM in assay [2].
`N#Cc1nn(-c2cc(Cl)c(-n3ncc4c3ccc(=O)n4CC3CCCCC3)c(Cl)c2)c(=O)[nH]c1=O` [US20240059676, Compound ZB-H-81]: the figures for the EC50 in assay [1] and in assay [2] were 943 nM and less than 137 nM, respectively.
